Earlier results on one compound are cited in PMC12256174, “Next-Generation Oral Delivery Systems: Phytosomal Hinokitiol Tablets via REGEMAT 3D Bioprinter-Based 3D Printing for Enhanced Bioavailability” (Scientifica, 2025).

In brackets after ≈: the same amount, converted by molar mass.

Turning to `CC(C)c1cccc(=O)c(O)c1` [Hinokitiol], the aqueous solubility (usually how much of the substance goes into solution per volume) was 1.12 ± 0.02 mg/mL (≈ 6.82 mM).
